Source: US20260284055A1, “FGFR4 INHIBITOR COMPOSITION, PREPARATION METHOD THEREFOR AND PHARMACEUTICAL USE THEREOF” (Abbisko Therapeutics Co., Ltd., priority 2023, published 2026)

What was measured:
Format in all cases: physicochemical
[1] = Particle size distribution of active pharmaceutical ingredient (Malvern Mastersizer 2000)
Procedure: The active pharmaceutical ingredient was mechanically milled, and samples were taken at different milling time points. The particle size distribution was determined using a Malvern Mastersizer 2000 laser particle size analyzer, and the particle morphology was observed using a polarizing microscope. [table]

[2] = Content determination of active pharmaceutical ingredient (HPLC)
Procedure: Chromatographic conditions: Octadecylsilane-bonded silica gel was used as the filler (Waters XBridge® C18, 4.6×150 mm, […] chromatographic column or chromatographic column with equivalent performance); a 0.1 vol % trifluoroacetic acid solution was used as mobile phase A, and a solution of 0.1 vol % trifluoroacetic acid in acetonitrile was used as mobile phase B; isocratic elution was performed with mobile phase A-mobile phase B (70:30); the detection wavelength was 232 nm, the flow rate was 1.0 mL/min, the column temperature was 40° C., the sample injection volume was 10 μL, and the run time was 10 min.
(§1) The inventors first conducted a study on the physicochemical properties of the active pharmaceutical ingredient. The specific procedures were as follows: The active pharmaceutical ingredient and different auxiliary materials were mixed at different ratios and then placed under different conditions; the samples were taken out at different time points and then observed for appearance, hygroscopic weight gain, active pharmaceutical ingredient content, related substance content, etc.

[3] = Hygroscopic weight gain (gravimetric method)
Procedure: Gravimetric method: The initial weight of a sample was measured, recorded as W1, and then the weight of the sample after being placed under high-humidity conditions for a certain period of time was measured, recorded as W2; the percentage of hygroscopic weight gain was calculated based on the weight difference, using the following calculation formula: (W2−W1)/W1*100%.
as §1

[4] = Micromeritic properties of powders (angle of repose, bulk density, tap density, Carr index, flowability)
[5] = Related substances (HPLC), compatibility and stability
Procedure: Gradient elution was performed according to the table below, with a run time of 50.0 min and a post-run time of 5 min.
as §1

[6] = API of the capsule batch of the same table line

Question: Which results are given for `C=CC(=O)N[C@H]1CCOC[C@H]1Nc1ncc2cc(-c3c(F)c(OC)cc(OC)c3F)nc(N3CC(C)(OC)C3)c2n1` [Test 0]?
Answer: Particle size distribution D50 [1]: 155.607 μm; Particle size distribution D90 [1]: 333.563 μm

Question: With `C=CC(=O)N[C@H]1CCOC[C@H]1Nc1ncc2cc(-c3c(F)c(OC)cc(OC)c3F)nc(N3CC(C)(OC)C3)c2n1.Cc1ccc(S(=O)(=O)O)cc1.O` [Active pharmaceutical ingredient, p-toluenesulfonate monohydrate of the compound of formula (I)] as the compound, how does the Content ([2]; 0 d) read?
Answer: 100.5%

Question: And the Content ([2]; 25° C./92.5% RH, 30 d)?
Answer: 99.5%

Question: And the Content ([2]; 40° C./75% RH, 30 d)?
Answer: 98.6%

Question: And the Content ([2]; 60° C., 30 d)?
Answer: 102.5%

Question: And the Content ([2]; Light exposure, 10 d)?
Answer: 96.5%

Question: What about the “Percentage change in hygroscopic weight gain” value (shortened to “Percentage change”) ([3]; 25° C./92.5% RH, 10 d) of the same compound?
Answer: 0.6%

Question: And the “Percentage change” value ([3]; 25° C./92.5% RH, 30 d)?
Answer: 0.3%

Question: And the “Percentage change” value ([3]; 40° C./75% RH, 10 d)?
Answer: 0.2%

Question: What about the “Percentage change” value ([3]; 40° C./75% RH, 30 d) of the same compound?
Answer: −0.3%

Question: And the Hygroscopicity ([3]; API alone)?
Answer: not highly hygroscopic

Question: What about the Angle of repose [4] of the same compound?
Answer: 44.66 °

Question: What about the Bulk density [4] of the same compound?
Answer: 0.447 g/mL

Question: And the Carr index [4]?
Answer: 40%

Question: And the Tap density [4]?
Answer: 0.740 g/mL

Question: What about the “Related substance (%)” value ([5]; 0 d) of the same compound?
Answer: 0.66%

Question: And the “Related substance (%)” value ([5]; 25° C./92.5% RH (open), 30 d)?
Answer: 0.98%

Question: What about the “Related substance (%)” value ([5]; 25° C./92.5% RH (open), 30 d, listed as active pharmaceutical ingredient) of the same compound?
Answer: slight increase in impurities

Question: What about the “Related substance (%)” value ([5]; 40° C./75% RH (open), 30 d) of the same compound?
Answer: 0.58%

Question: And the “Related substance (%)” value ([5]; 40° C./75% RH (open), 30 d, listed as active pharmaceutical ingredient)?
Answer: remained stable

Question: What about the “Related substance (%)” value ([5]; 60° C. (open), 30 d) of the same compound?
Answer: 0.66%

Question: What about the “Related substance (%)” value ([5]; 60° C. (open), 30 d, listed as active pharmaceutical ingredient) of the same compound?
Answer: remained stable

Question: And the “RRT = 0.27 related substance content” value ([5]; API)?
Answer: <0.05%

Question: And the “RRT = 0.44 related substance content” value ([5]; API)?
Answer: 0.09%

Question: And the “RRT = 0.56 related substance content” value ([5]; API)?
Answer: <0.05%

Question: And the “RRT = 0.71 related substance content” value ([5]; API)?
Answer: 0.05%

Question: And the “RRT = 0.74 related substance content” value ([5]; API)?
Answer: 0.06%

Question: What about the “RRT = 0.88 related substance content” value ([5]; API) of the same compound?
Answer: 0.06%

Question: And the “RRT = 0.97 related substance content” value ([5]; API)?
Answer: <0.05%

Question: And the “RRT = 1.05 related substance content” value ([5]; API)?
Answer: <0.05%

Question: What about the “RRT = 1.09 related substance content” value ([5]; API) of the same compound?
Answer: <0.05%

Question: And the “RRT = 1.27 related substance content” value ([5]; API)?
Answer: 0.20%

Question: And the “RRT = 2.00 related substance content” value ([5]; API)?
Answer: 0.14%

Question: What about the Related substance ([5]; API) of the same compound?
Answer: 0.60%

Question: What about the “API impurities: Single impurity” value [5, 6] of the same compound?
Answer: Single impurity < 0.05%

Question: And the “API impurities: Total impurities” value [5, 6]?
Answer: Total impurities < 0.05%

Question: And the “Related substance (%)” value ([5]; Light exposure (open), 10 d)?
Answer: 0.64%

Question: And the “Related substance (%)” value ([5]; Light exposure (open), 10 d, listed as active pharmaceutical ingredient)?
Answer: remained stable

Question: And the “single impurity (RRT=0.44)” value ([5]; after 10 days of exposure to light)?
Answer: 0.07%

Question: What about the “single impurity (RRT=0.44)” value ([5]; before exposure to light) of the same compound?
Answer: < 0.05%

Question: With `C=CC(=O)N[C@H]1CCOC[C@H]1Nc1ncc2cc(-c3c(F)c(OC)cc(OC)c3F)nc(N3CC(C)(OC)C3)c2n1` [Test 2] as the compound, how does the “Particle size distribution D10” value [1] read?
Answer: 1.509 μm

Question: And the “Particle size distribution D50” value [1]?
Answer: 9.682 μm

Question: And the “Particle size distribution D90” value [1]?
Answer: D90 = 63.594 μm

Question: Which “Particle size distribution D10” value [1] does the source give for `C=CC(=O)N[C@H]1CCOC[C@H]1Nc1ncc2cc(-c3c(F)c(OC)cc(OC)c3F)nc(N3CC(C)(OC)C3)c2n1` [Test 1] here?
Answer: 2.168 μm

Question: What about the “Particle size distribution D50” value [1] of the same compound?
Answer: 14.763 μm

Question: What about the “Particle size distribution D90” value [1] of the same compound?
Answer: D90 = 125.775 μm

Question: Which results are given for `C=CC(=O)N[C@H]1CCOC[C@H]1Nc1ncc2cc(-c3c(F)c(OC)cc(OC)c3F)nc(N3CC(C)(OC)C3)c2n1` [Test 3]?
Answer: Particle size distribution D10 [1]: 1.298 μm; Particle size distribution D50 [1]: 8.279 μm; Particle size distribution D90 [1]: D90 = 43.137 μm
